Results: patent US11185598B2, “Preparation of stabilised x-ray diagnostic composition” (GE HEALTHCARE AS, priority 2010, dated 2021)

How the values were obtained:
Type in all cases: physicochemical
[1] = Stability of Compound I at different pH: inorganic iodide and pH after autoclaving; settings: 320 mg I/ml, 121° C. 120 minutes or 134° C. 60 minutes
Method: Experiments were performed to investigate the level of inorganic iodide generated as a result of degeneration of Compound I as a result of a pH and heating regime. Reference is made to FIGS. 1 and 2. The heat load was controlled by using a BIER-vessel for the steam heat sterilisation. Formulated Compound I (drug product, DP, 320 mg I/ml) was added 25% HCl to obtain 4 series of 6 vials with a pH of 2.0, 3.1, 4.0 and 7.7, respectively.
DP (10 ml) was filled in 10 ml vials. 3 vials from each series were autoclaved at 121° C. for 120 minutes and the remaining 3 vials were autoclaved at 134° C. for 60 minutes. The samples, including 2 reference samples, were subjected to pH and iodide analyses.

[2] = Solubility in water (comparison)
[3] = Inorganic iodide in X-ray composition prepared by the process of the invention (400 litre batch); settings: 320 mg I/ml
Method: 261 kg of Compound I was dissolved in 250 litres of water for injection (WFI) and added 44 g Na2Ca-EDTA.2H2O in the mixing tank (A). HCl 5M was used to set the solution to pH 3. Under these conditions, to the composition underwent heating for 40 minutes at 122° C. […] This solution was cooled to approximately 50° C. and filtered through a 10 kDa ultrafilter. The remaining WFI to yield a solution of 320 mg I/ml of compound I was used to rinse the ultrafilter by dilution of the concentrated retentate. The filtered solution was dispensed and autoclaved for 20 minutes at 121° C. After autoclaving, the concentration of inorganic iodide was 10 μg/ml, which is approximately a fifth of the concentration resulting from a conventional production not using the process of the invention.

[4] = Iodide level after steam heat sterilisation, conventional heating regime; settings: 134° C. for 45 minutes, no reduced pH
Method: During the development of new iodinated X-ray contrast agents, several heating regimes have been tested to find the parameters to be used for the secondary productions. Among these are end heat steam sterilization at 134° C. or 121° C. for 45 minutes or more, pre-heating in the mixing tank above the dissolution temperature (e.g. 110-111° C./330 mg I/ml) using different regimes followed by end heat steam sterilization etc. Although some of these heating regimes might be capable of providing a physically stable solution, they may cause high levels of free iodide due to degeneration of the iodinated X-ray contrast agent (Scheme 1). […] This is above the acceptable level.

[5] = Saturation / dissolution temperature of contrast agent solution in water
Source text: The injection solution of Compound I is highly supersaturated. The nucleation (precipitation) in the injection solution at storage conditions is strongly undesirable. The physical stability of the solution, i.e. prevention of the nucleation for a certain time at storage conditions, may be improved substantially by heat treatment of the solution well above its saturation temperature for a sufficiently long period of time. A solution in which the concentration of the solute (API) exceeds the equilibrium solute concentration at a given temperature is said to be supersaturated. […] Such solutions are denoted as supersaturated. Saturation temperature is the temperature where all solid API (amorphous and crystalline) apparently dissolves completely. As the solubility of Compound I decreases with decreasing temperature, the supersaturation increases.
For a compound or contrast agent with a defined crystalline state (single polymorph) at one side, and a solvent including dissolved admixtures on the other, the concentration of the agent in the solution in equilibrium with the crystalline state is called solubility. At this concentration the activity of the agent is equal in both phases. A system out of the equilibrium stage tends to change the solution concentration towards the equilibrium (solubility), e.g. dissolve crystals when under-saturated, or crystallize out compound when supersaturated. Normally, the solubility changes, usually increases, with temperature. For the purpose, we define the temperature at which the crystal solubility is equal to the concentration in the particular solution as “dissolution temperature”. When a solution contains crystals, the crystals dissolve at temperatures above the “dissolution temperature”, remaining a crystal free solution. When the amount of the crystals is small, the concentration increase by dissolution may be neglected.

Compound: O=CN(CC(O)CN(C=O)c1c(I)c(C(=O)NCC(O)CO)c(I)c(C(=O)NCC(O)CO)c1I)c1c(I)c(C(=O)NCC(O)CO)c(I)c(C(=O)NCC(O)CO)c1I (centres unmarked) [Compound I, 5-[formyl-[3-[formyl-[3,5-bis(2,3-dihydroxypropylcarbamoyl)-2,4,6-triiodophenyl]amino]-2-hydroxypropyl]amino]-N,N′-bis(2,3-dihydroxypropyl)-2,4,6-triiodobenzene-1,3-dicarboxamide]
- change in pH after autoclaving ([1]; start pH in the range 2-4): no significant change in pH
- iodide levels after autoclaving ([1]; start pH in the range 2-4): only a minor increase in iodide levels
- change in pH after autoclaving ([1]; start pH of 7.7): corresponding drop in pH
- iodide levels after autoclaving ([1]; start pH of 7.7): high iodide levels
- solubility in water compared with iodixanol [2]: lower solubility in water than iodixanol
- inorganic iodide concentration relative to conventional production not using the process ([3]; after autoclaving): approximately a fifth
- concentration of inorganic iodide after autoclaving ([3]; heated 40 minutes at 122° C. at pH 3, then pH 7.3, autoclaved 20 minutes at 121° C.): 10000 ng/mL
- iodide levels after steam heat sterilisation [4]: 75-85 μg I/ml
- dissolution temperature ([5]; at 330 mg I/ml): 110-111 °C
- dissolution temperature ([5]; water for injection as solvent, concentration range 270-380 mg I/ml): ~110 °C

Compound: CC(=O)N(CC(O)CN(C(C)=O)c1c(I)c(C(=O)NCC(O)CO)c(I)c(C(=O)NCC(O)CO)c1I)c1c(I)c(C(=O)NCC(O)CO)c(I)c(C(=O)NCC(O)CO)c1I (centres unmarked) [iodixanol, reference compound]
- saturation temperature ([5]; solution of about 320 mg I/ml in water): approximately 92 °C
